Measured values reported in US10954246B2, “Compound of EOC315 Mod.I crystal form and preparation method thereof” (Taizhou EOC Pharma Co., Ltd., priority 2017, dated 2021).
Counter-ions that a name gives are not always drawn.

Legend:
[1] = test system: Colo-205 human CRC xenograft; assay: Colo-205 human CRC xenograft model, tumor microvessel histomorphometry (CD31); type: in vivo; details: for decrease of MVA: 3 days after the administration
Protocol: The EOC315 crystalline form Mod. […] Therefore, a study was conducted in a Colo-205 human CRC xenograft model to evaluate whether the anti-tumor activity observed in vivo is consistent with the hypothesis. The microvessel density of a tumor was determined by the quantitative histomorphometry after the endothelial cell marker CD31 was stained. Four hours after the first drug delivery, the declining level of the tumor MVA was further increased compared with each solvent control group (32%; P<0.05). Twenty-four hours after the administration, the declining level of the tumor MVA was further increased (53%; P<0.01).

[2] = Long-term stability study (25° C., RH 60%); type: physicochemical; details: for Related substance Impurity 5 / Related substance Impurity 6 / Related substance Maximum single impurity / Related substance Impurity 1 / Related substance Impurity 2 / Related substance Impurity 3 / Related substance Total impurity / Related substance Impurity 4 / Crystalline form: 25° C./RH 60%; for Related substance Impurity 5 / Related substance Impurity 6: limit 0.10%; for Related substance Maximum single impurity: limit 0.15%; for Related substance Impurity 1 / Related substance Impurity 2 / Related substance Impurity 3: limit 0.17%; for Related substance Total impurity: limit 1.0%; for Related substance Impurity 4: limit 3.0%; for Crystalline form: limit ModI
Protocol: Long-term stability over twelve months was evaluated at 25° C. and a relative humidity of 60%; or accelerated stability over six months was evaluated at 40° C. and a relative humidity of 75%.

CNC(=O)c1cc(OCc2nnc(Nc3ccc(Cl)cc3)c3ccoc23)ccn1 [EOC315 crystalline form Mod. I, 4-(4-chloroanilino)-7-(2-methylaminocarbonyl-4-oxymethyl)pyridylfuro[2,3-d]pyridazine mesylate]
decrease of MVA ([1]; at 4 hours): 64%
decrease of MVA ([1]; at 6 hours): 68%
growth of tumor cells ([1]; conclusion from the xenograft results): significantly suppressed
decline of tumor MVA vs solvent control ([1]; four hours after the first drug delivery, P<0.05): 32%
decline of tumor MVA vs solvent control ([1]; twenty-four hours after the administration, P<0.01): 53%
Related substance Impurity 5 ([2]; Month 0, listed as 151211): 0.02%
Related substance Impurity 6 ([2]; Month 0, listed as 151211): 0.01%
Related substance Impurity 5 ([2]; Month 0, listed as 151212): 0.01%
Related substance Impurity 6 ([2]; Month 0, listed as 151212): Undetected
Related substance Impurity 5 ([2]; Month 0, listed as 151213): Undetected
Related substance Impurity 6 ([2]; Month 0, listed as 151213): Undetected
Related substance Maximum single impurity ([2]; Month 0, listed as 151211): 0.0079%
Related substance Maximum single impurity ([2]; Month 0, listed as 151212): 0.012%
Related substance Maximum single impurity ([2]; Month 0, listed as 151213): 0.0085%
Related substance Impurity 1 ([2]; Month 0): Undetected
Related substance Impurity 2 ([2]; Month 0): Undetected
Related substance Impurity 3 ([2]; Month 0, listed as 151211): 0.016%
Related substance Impurity 3 ([2]; Month 0, listed as 151212): 0.011%
Related substance Impurity 3 ([2]; Month 0, listed as 151213): 0.011%
Related substance Total impurity ([2]; Month 0, listed as 151211): 0.53%
Related substance Total impurity ([2]; Month 0, listed as 151212): 0.65%
Related substance Total impurity ([2]; Month 0, listed as 151213): 0.52%
Related substance Impurity 4 ([2]; Month 0, listed as 151211): 0.36%
Related substance Impurity 4 ([2]; Month 0, listed as 151212): 0.46%
Related substance Impurity 4 ([2]; Month 0, listed as 151213): 0.35%
Crystalline form ([2]; Month 0): ModI
Related substance Impurity 6 ([2]; Month 3): Undetected
Related substance Impurity 5 ([2]; Month 3, listed as 151211): 0.01%
Related substance Impurity 5 ([2]; Month 3, listed as 151212): 0.02%
Related substance Impurity 5 ([2]; Month 3, listed as 151213): 0.01%
Related substance Maximum single impurity ([2]; Month 3): Undetected
Related substance Impurity 1 ([2]; Month 3): Undetected
Related substance Impurity 2 ([2]; Month 3): Undetected
Related substance Impurity 3 ([2]; Month 3): Undetected
Related substance Total impurity ([2]; Month 3, listed as 151211): 0.5%
Related substance Total impurity ([2]; Month 3, listed as 151212): 0.6%
Related substance Total impurity ([2]; Month 3, listed as 151213): 0.5%
Related substance Impurity 4 ([2]; Month 3, listed as 151211): 0.4%
Related substance Impurity 4 ([2]; Month 3, listed as 151212): 0.5%
Related substance Impurity 4 ([2]; Month 3, listed as 151213): 0.38%
Related substance Impurity 6 ([2]; Month 6): 0.01%
Related substance Impurity 5 ([2]; Month 6, listed as 151211): Undetected
Related substance Impurity 5 ([2]; Month 6, listed as 151212): 0.02%
Related substance Impurity 5 ([2]; Month 6, listed as 151213): Undetected
Related substance Maximum single impurity ([2]; Month 6, listed as 151211): 0.013%
Related substance Maximum single impurity ([2]; Month 6, listed as 151212): 0.070%
Related substance Maximum single impurity ([2]; Month 6, listed as 151213): 0.016%
Related substance Impurity 1 ([2]; Month 6): Undetected
Related substance Impurity 2 ([2]; Month 6, listed as 151211): 0.0028%
Related substance Impurity 3 ([2]; Month 6, listed as 151211): 0.099%
Related substance Impurity 2 ([2]; Month 6, listed as 151212): Undetected
Related substance Impurity 3 ([2]; Month 6, listed as 151212): 0.031%
Related substance Impurity 2 ([2]; Month 6, listed as 151213): Undetected
Related substance Impurity 3 ([2]; Month 6, listed as 151213): 0.033%
Related substance Total impurity ([2]; Month 6, listed as 151211): 0.73%
Related substance Total impurity ([2]; Month 6, listed as 151212): 0.88%
Related substance Total impurity ([2]; Month 6, listed as 151213): 0.63%
Related substance Impurity 4 ([2]; Month 6, listed as 151211): 0.42%
Related substance Impurity 4 ([2]; Month 6, listed as 151212): 0.54%
Related substance Impurity 4 ([2]; Month 6, listed as 151213): 0.40%
Crystalline form ([2]; Month 6): ModI
Related substance Impurity 5 ([2]; Month 9, listed as 151211): 0.02%
Related substance Impurity 6 ([2]; Month 9, listed as 151211): Undetected
Related substance Impurity 5 ([2]; Month 9, listed as 151212): 0.01%
Related substance Impurity 6 ([2]; Month 9, listed as 151212): 0.01%
Related substance Impurity 5 ([2]; Month 9, listed as 151213): Undetected
Related substance Impurity 6 ([2]; Month 9, listed as 151213): Undetected
Related substance Maximum single impurity ([2]; Month 9, listed as 151211): 0.013%
Related substance Maximum single impurity ([2]; Month 9, listed as 151212): Undetected
Related substance Maximum single impurity ([2]; Month 9, listed as 151213): Undetected
Related substance Impurity 1 ([2]; Month 9): Undetected
Related substance Impurity 2 ([2]; Month 9): Undetected
Related substance Impurity 3 ([2]; Month 9): Undetected
Related substance Total impurity ([2]; Month 9, listed as 151211): 0.61%
Related substance Total impurity ([2]; Month 9, listed as 151212): 0.77%
Related substance Total impurity ([2]; Month 9, listed as 151213): 0.58%
Related substance Impurity 4 ([2]; Month 9, listed as 151211): 0.43%
Related substance Impurity 4 ([2]; Month 9, listed as 151212): 0.56%
Related substance Impurity 4 ([2]; Month 9, listed as 151213): 0.42%
Related substance Impurity 5 ([2]; Month 12, listed as 151211): 0.01%
Related substance Impurity 6 ([2]; Month 12, listed as 151211): 0.03%
Related substance Impurity 5 ([2]; Month 12, listed as 151212): Undetected
Related substance Impurity 6 ([2]; Month 12, listed as 151212): 0.02%
Related substance Impurity 5 ([2]; Month 12, listed as 151213): 0.01%
Related substance Impurity 6 ([2]; Month 12, listed as 151213): Undetected
Related substance Maximum single impurity ([2]; Month 12): Undetected
Related substance Impurity 1 ([2]; Month 12): Undetected
Related substance Impurity 2 ([2]; Month 12): Undetected
Related substance Impurity 3 ([2]; Month 12): Undetected
Related substance Total impurity ([2]; Month 12, listed as 151211): 0.63%
Related substance Total impurity ([2]; Month 12, listed as 151212): 0.80%
Related substance Total impurity ([2]; Month 12, listed as 151213): 0.58%
Related substance Impurity 4 ([2]; Month 12, listed as 151211): 0.46%
Related substance Impurity 4 ([2]; Month 12, listed as 151212): 0.58%
Related substance Impurity 4 ([2]; Month 12, listed as 151213): 0.42%
Crystalline form ([2]; Month 12): ModI
stability of the crystalline form (conclusion from tables 4 and 5) ([2]; long-term and accelerated stability): thermodynamically stable form
